Experimental data: ChEMBL document CHEMBL1126743, “New pyridobenzodiazepine derivatives as potential antipsychotics: synthesis and neurochemical study” (J Med Chem, 1993)
Activity calls are given as the source filed them. No cut-off for these calls is given here.

Tests used:
D(1A) dopamine receptor = D(1A) dopamine receptor (Rattus norvegicus, UniProt P18901); test: biochemical
Description: In vitro binding affinity against Dopamine receptor D1 in rat striatal tissue

[1] = biological target: Serotonin 2 (5-HT2) receptor (Rattus norvegicus, UniProt P30994+P08909+P14842)
Description: In vitro binding affinity against rat 5-hydroxytryptamine 2 receptor.

[2] = biological target: Muscarinic acetylcholine receptor
Description: In vitro binding affinity against Muscarinic acetylcholine receptors in rat brain.

Rattus norvegicus [3] = species: Rattus norvegicus; test: animal or person; details: sc, read-out: Inhibition
Rattus norvegicus [4] = test: In vivo inhibition of apomorphine-mediated stereotypy in rats administered subcutaneously at 20 mg/kg expressed as percent inhibition; format: functional; details: sc, route subcutaneous
Rattus norvegicus [5] = test: In vivo inhibition of apomorphine-mediated stereotypy in rats administered subcutaneously at 20 mg/kg expressed as ED50 (mg/kg); Onactive; format: functional, organism-based; design: dose 20 mg/kg
Rattus norvegicus [6] = test: In vivo inhibition of apomorphine-mediated stereotypy in rats administered subcutaneously at 10 mg/kg expressed as percent inhibition; format: functional; details: sc, route subcutaneous
Rattus norvegicus [7] = species: Rattus norvegicus; test: animal or person; details: sc
Rattus norvegicus [8] = species: Rattus norvegicus; test: animal or person; details: sc, read-out: Inhibition; remark: listed apart in the source
Rattus norvegicus [9] = test: In vivo inhibition of apomorphine-mediated stereotypy in rats administered subcutaneously at 20 mg/kg expressed as ED50 (mg/kg); format: functional; details: sc, route subcutaneous
Rattus norvegicus [10] = test: In vivo inhibition of apomorphine-mediated stereotypy in rats administered subcutaneously at 20 mg/kg expressed as ED50 (mg/kg); Inactive; format: functional, organism-based; design: dose 20 mg/kg

Chain of D(1A) dopamine receptor (P18901 whole entry): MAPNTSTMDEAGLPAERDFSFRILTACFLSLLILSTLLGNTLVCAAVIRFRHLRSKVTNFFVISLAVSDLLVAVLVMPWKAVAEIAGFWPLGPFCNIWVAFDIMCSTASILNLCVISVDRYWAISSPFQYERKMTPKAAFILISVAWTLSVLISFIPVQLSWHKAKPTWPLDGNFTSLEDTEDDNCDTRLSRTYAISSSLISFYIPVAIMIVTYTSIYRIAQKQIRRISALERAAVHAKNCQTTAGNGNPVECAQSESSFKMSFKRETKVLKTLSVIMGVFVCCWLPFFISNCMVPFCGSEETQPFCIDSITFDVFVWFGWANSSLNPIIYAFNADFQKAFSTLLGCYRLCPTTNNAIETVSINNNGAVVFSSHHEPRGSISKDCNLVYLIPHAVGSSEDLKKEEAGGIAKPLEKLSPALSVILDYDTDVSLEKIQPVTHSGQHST

Row | Compound | Ki (D(1A) dopamine receptor) [nM] | Ki [1] [nM] | Ki [2] [nM] | inhibition in vivo at 20 mg/kg (Rattus norvegicus [3]) [%] | other results
1 | CN1CCN(C2=Nc3ccccc3N(C=O)c3ccncc32)CC1 | 3020 | 2053 | 3450 | 0 | –
2 | CN1CCN(C2=Nc3cc(F)ccc3Cc3ccccc32)CC1 [FLUPERLAPINE] | 141 | 3.8 | 25 | – | –
3 | CN1CCN(C2=Nc3ccccc3Nc3ncccc32)CC1 | 726 | 103 | 303 | 0 | –
4 | CN1CCN(C2=Nc3ccccc3Nc3ccncc32)CC1 | 302 | 29 | 3260 | 45 | –
5 | Cc1cnc2c(c1)N=C(N1CCN(C)CC1)c1ccccc1N2 | 1140 | 103 | 523 | – | –
6 | CN1CCN(C2=Nc3cnccc3Nc3ccccc32)CC1 | 13500 | 837 | 430 | – | –
7 | CN1CCN(C2=Nc3cccnc3N(C)c3ccccc32)CC1 | 6020 | 2900 | 175 | 0 | –
8 | CN1CCN(C2=Nc3cccnc3Nc3cc(Cl)ccc32)CC1 | 214 | 48 | 366 | 70 | –
9 | CN1CCN(C2=Nc3cccnc3Nc3ccc(F)cc32)CC1 | 677 | 124 | 415 | – | inhibition in vivo at 20 mg/kg (Rattus norvegicus [4]): 55%
10 | CN1CCN(C2=Nc3cccnc3N(C=O)c3ccccc32)CC1 | 47900 | 1870 | 311 | 0 | –
11 | CN1CCN(C2=Nc3cc(Cl)ccc3Sc3ccccc32)CC1 [ISOCLOTHIAPINE] | 240 | 4.1 | 5.6 | – | ED50 (Rattus norvegicus [5]): inactive
12 | CN1CCN(C2=Nc3cccnc3Nc3ccc(Cl)cc32)CC1 | 2140 | 6.2 | 65 | – | inhibition in vivo at 10 mg/kg (Rattus norvegicus [6]): 75%
13 | CN1CCN(C2=Nc3ccccc3Sc3ccc(Cl)cc32)CC1 [CLOTHIAPINE] | 14 | 0.6 | 136 | 100 | ED50 (Rattus norvegicus [7]): 0.72 mg/kg
14 | CN1CCN(C2=Nc3ccccc3N(C=O)c3ncccc32)CC1 | 30200 | 7120 | 3415 | 0 | –
15 | CN1CCN(C2=Nc3cccnc3Nc3ccccc32)CC1 | 2400 | 124 | 665 | 0 | –
16 | CN1CCN(C2=Nc3ccccc3Nc3ccc(Cl)cc32)CC1 [ISOCLOZAPINE] | 28 | – | 21 | – | ED50 (Rattus norvegicus [7]): 1.7 mg/kg
17 | O=C(CCCN1CCC(O)(c2ccc(Cl)cc2)CC1)c1ccc(F)cc1 [HALOPERIDOL] | – | – | – | – | inhibition in vivo at 0.6 mg/kg (Rattus norvegicus [8]): 100%; ED50 (Rattus norvegicus [9]): 0.14 mg/kg
18 | Cc1ccc2c(c1)C(N1CCN(C)CC1)=Nc1cccnc1N2 | 398 | 94 | 48 | 75 | –
19 | CN1CCN(C2=Nc3cc(Cl)ccc3Nc3ccccc32)CC1 [CLOZAPINE] | – | – | – | 0 | ED50 (Rattus norvegicus [10]): inactive
